In patent US8349791B2, “Polypeptides that bind membrane proteins” (The Trustees of the University of Pennsylvania, priority 2006, dated 2013):
Peptide text beside a SMILES is read from it.

Columns and labels:
β1 TM domain = target: T1, β1 TM domain (Homo sapiens, UniProt P05556); assay: DN-TOXCAT heterodimerization; format: cell-based; conditions: coexpressed in bacterial membranes
T1 construct: expressed in transfected cells; host or cells: E. coli MM39, pDNToxR-Duet
Method: (§1) Both the affinity and specificity of the membrane protein-binding peptides for their targets when coexpressed in bacterial membranes were assessed with a DN-“TOXCAT” assay (FIGS. 3a-3c). In TOXCAT, a TM sequence of interest is fused to a ToxR protein (TM-ToxR) that binds to the ctx promoter as a dimer, which induces expression of chloramphenicol acetyltransferase (CAT) (W. P. Russ, D. M. Engelman, Proc. Natl. Acad. Sci. U.S.A. 96, 863 (1999); D. Langosch, B. Brosig, H. Kolmar, H. J. Fritz, J. Mol. Biol. 263, 525 (1996)). In the DN assay, the TM1-ToxR fusion protein is coexpressed with a second fusion protein (TM2-ToxR*) containing a nonfunctional mutant of the ToxR domain. TM-driven dimerization leads to a ToxR-ToxR* dimer that is unable to bind the ctx promoter or to induce CAT synthesis (FIG. 3a). The resulting decrease in CAT activity can be used to monitor the formation of a heterodimeric TM complex. In principle, this assay could be accomplished by adding an exogenous synthetic peptide (D. Gerber, N. Sal-Man, Y. Shai, J. Mol. Biol. 339, 243 (2004)); however, it is difficult to assure that different peptides will be similarly inserted into the Escherichia coli inner membrane.
(§2) For testing the specificity of the designed membrane protein-binding polypeptide sequences against the integrin TM domains, the designed sequences (anti-αIIb and anti-αV) were cloned into MCS1 of the Duet vector and the integrin TM domains into MCS2 of the Duet vector. In this configuration, the integrin TMs compete for the homodimers formed by the polypeptide sequences, with the decrease in CAT signal proportional to the extent of heterodimerization between a given integrin TM and polypeptide sequence relative to the homodimerization of the polypeptide sequence.
(§3) Single MM39 colonies containing pDNToxR-Duet constructs from selective plates were chosen, inoculated in 5 mL of LB medium containing 100 μg/mL ampicillin and grown to an OD600 of 0.2 at 37° C. with vigorous shaking. IPTG was added to the medium at a final concentration of 0.1 mM IPTG and grown to an OD600 of 0.7. Purification, immunoblotting, CAT ELISA and MalE complementation assays are essentially as described previously. Li, R., Gorelik, R., Nanda, V., Law, P. B., Lear, J. D., DeGrado, W. F. and Bennett, J. S. J. Biol. Chem. 2004, 279, 26666-26673 (2004). For immunoblotting, anti-MBP (NEB) was used for pccKAN (TOXCAT) constructs, whereas anti-myc (Covance) and anti-HA (Covance) were used for pDNToxR-Duet constructs. CAT ELISA results are an average of 3 independent replicates.

α2 TM domain = target: T2, α2 TM domain (Homo sapiens, UniProt P17301); assay: DN-TOXCAT heterodimerization; format: cell-based; conditions: coexpressed in bacterial membranes
T2 construct: expressed in transfected cells; host or cells: E. coli MM39, pDNToxR-Duet
Method: as §1, §2, §3

β3 TM domain = target: T3, β3 TM domain (Homo sapiens, UniProt P05106); assay: DN-TOXCAT heterodimerization; format: cell-based; conditions: coexpressed in bacterial membranes
T3 construct: expressed in transfected cells; host or cells: E. coli MM39, pDNToxR-Duet
Method: as §1, §2, §3

FITC-αIIb-TM = target: T4, FITC-αIIb-TM (Homo sapiens, UniProt P08514); assay: FRET heterodimeric association in micelles; format: binding; conditions: pH 7.5
T4 construct: designated αIIb-TM, spanning residues Trp968 to Lys989 of αIIb was synthesized; made in house; host or cells: chemical peptide synthesis (no expression host)
Method: FRET provided a more direct measure of the αIIb-TM/anti-αIIb heterodimeric association. […] Because the appropriate parameter for the association of polypeptides in micelles is generally the polypeptide concentration in the detergent micellar phase rather than the bulk polypeptide concentration, dissociation constants are often given in mole fraction units (polypeptide/detergent ratios).
Fluorescence resonance energy transfer (FRET) experiments were conducted on an ATF 105 spectrofluorometer (Aviv Biomedical, Inc., Lakewood, N.J.) using 0.3 cm path length cuvettes. […] Reference samples contain the same amount of FITC-αIIb-TM and non-labeled anti-αIIb to their corresponding FRET samples. Emission and excitation scans of the 1:1 mixture of FITC-αIIb-TM/coum-anti-αIIb were carried out to determine the optimal excitation and emission wavelengths. Excitation at 415 nm was selected. For the titration experiments in FIG. 2b, the emission at 500 nm was monitored. A slit width of 1.5 nm was used for both the excitation and emission. The signal and QC PMT high voltages were set at 737.3 V and 75.0 V, respectively. For the time-domain experiments, an experiment time of 600 seconds with 10 seconds of interval time and 10 seconds of average time was used. […] The fluorescence intensity values were used after correction of the inner filter effects using the standard method. […]

[1] = test system: gel-filtered human platelets; assay: Platelet aggregation, turbidometric; format: cell-based
Method: Platelet-rich plasma, prepared from human blood anti-coagulated with 0.1 volume of 0.13 M sodium citrate, was gel-filtered on Sepharose 2B (Amersham Biosciences, Piscataway, N.J.) using an elution buffer containing 137 mM NaCl, 2.7 mM KCl, 1 mM MgCl2, 5.6 mM glucose, 0.35 mg/ml bovine serum albumin, 3.3 mM NaH2PO4, and 4 mM HEPES (pH=7.4), as previously described. Jordan P et al. Nature 411, 909-917 (2001). Turbidometric measurements of platelet aggregation were performed in a Chrono-Log Lumi-Dual Aggregometer. Aliquots (0.4 ml) of the gel-filtered platelet suspension were supplemented with 200 μg/ml human fibrinogen (Enzyme Research Labs., South Bend, Ind.) and 1 mM CaCl2 (final concentrations) prior to adding platelet agonists. The polypeptide was added from a DMSO solution such that the final concentration of DMSO was no greater than 0.5%. All controls also had 0.5% DMSO in the buffer.

T3 sequence (P05106 with tags, fused parts or gaps limits assumed): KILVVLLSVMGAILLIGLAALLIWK
T4 sequence (P08514 999-1020 limits assumed): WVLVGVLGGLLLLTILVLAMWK
T2 sequence (P17301 with tags, fused parts or gaps limits assumed): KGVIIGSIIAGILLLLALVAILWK
T1 sequence (P05556 with tags, fused parts or gaps limits assumed): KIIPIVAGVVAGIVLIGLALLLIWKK

With CC[C@H](C)[C@H](NC(=O)[C@H](Cc1ccccc1)NC(=O)[C@H](Cc1ccccc1)NC(=O)[C@@H]1CCCN1C(=O)[C@H](CC(C)C)NC(=O)[C@H](CC(C)C)NC(=O)[C@H](CCSC)NC(=O)[C@@H](NC(=O)[C@H](Cc1ccc(O)cc1)NC(=O)[C@H](C)NC(=O)[C@H](CCCCN)NC(=O)[C@@H](N)CCCCN)C(C)C)C(=O)NCC(=O)N[C@@H](CC(C)C)C(=O)N[C@@H](CC(C)C)C(=O)N[C@@H](CC(C)C)C(=O)NCC(=O)N[C@@H](CC(C)C)C(=O)N[C@H](C(=O)N[C@@H](Cc1ccccc1)C(=O)NCC(=O)NCC(=O)N[C@@H](C)C(=O)N[C@@H](Cc1ccccc1)C(=O)N[C@@H](Cc1c[nH]c2ccccc12)C(=O)NCC(=O)N1CCC[C@H]1C(=O)N[C@@H](C)C(=O)N[C@@H](CCCNC(=N)N)C(=O)N[C@@H](Cc1c[nH]cn1)C(=O)N[C@@H](CC(C)C)C(=O)N[C@@H](CCCCN)C(=O)N[C@@H](CCCCN)C(N)=O)[C@@H](C)CC [anti-αIIb] (H-KKAYVMLLPFFIGLLLGLIFGGAFWGPARHLKK-NH2; N-terminus assumed) the “interaction with β1 TM domain” value (β1 TM domain) was “failed to significantly interact”, the “interaction with α2 TM domain” value (α2 TM domain) was “failed to significantly interact” and the “interaction with β3 TM domain” value (β3 TM domain) was “failed to significantly interact”. The “apparent Kdiss for the αIIb-TM/anti-αIIb interaction” value (FITC-αIIb-TM) was 3.2±0.5×10^−4 mole fraction units, the “induced aggregation in the presence of PGE1 and apyrase” value ([1]; 1 μM peptide, 2 μM PGE1, 10 units/ml apyrase) was “only minimally affected” and the “induced aggregation in the presence of EDTA, Arg-Gly-Asp-Ser or antibody A2A9” value ([1]; agents that directly target αIIbβ3) was “inhibited”. For the same compound, the “platelet aggregation response” value ([1]; gel-filtered human platelets) was “highly active”.
